Source: ChEMBL document CHEMBL5226375, “Synthesis and Comprehensive in Vivo Activity Profiling of Olean-12-en-28-ol, 3β-Pentacosanoate in Experimental Autoimmune Encephalomyelitis: A Natural Remyelinating and Anti-Inflammatory Agent” (J Nat Prod, 2023)
Active and inactive are the calls of the source. The calls are words filed in the database; no cut-off is given here.

Experiments:
Mus musculus [1] = assay: Anti-inflammatory activity against MOG35-55-induced experimental autoimmune encephalomyelitis C57BL/6 mouse model assessed as fold change in YWHAH gene expression in brain at 0.3 mg/kg/day, ig for 14 days starting from 12th day of immunization by RT-qPCR analysis relative to control; type: functional; conditions: time 14 day
Mus musculus [2] = assay: Anti-inflammatory activity against MOG35-55-induced experimental autoimmune encephalomyelitis C57BL/6 mouse model assessed as fold change in NFKB gene expression in brain at 0.3 mg/kg/day, ig for 14 days starting from 12th day of immunization by RT-qPCR analysis relative to control; type: functional; conditions: time 14 day
Mus musculus [3] = assay: Anti-inflammatory activity against MOG35-55-induced experimental autoimmune encephalomyelitis C57BL/6 mouse model assessed as fold change in BCL2 gene expression in brain at 0.15 mg/kg/day, ig for 14 days starting from 12th day of immunization by RT-qPCR analysis relative to control; type: functional; conditions: time 14 day
Mus musculus [4] = assay: (§1) Anti-inflammatory activity against MOG35-55-induced experimental autoimmune encephalomyelitis C57BL/6 mouse model assessed as reduction in serum chemokines level by measuring reduction in G-SCF level at 0.3 mg/kg/day, ig for 14 days starting from 12th day of immunization by ELISA; type: functional, organism-based; conditions: time 14.0 day
Mus musculus [5] = assay: Anti-inflammatory activity against MOG35-55-induced experimental autoimmune encephalomyelitis C57BL/6 mouse model assessed as methylation of CpG sites of IL10RA gene promoter in brain at […], ig for 14 days starting from 12th day of immunization by PCR analysis (reference value: 34.9 +/-4%); type: functional; conditions: time 14 day
Mus musculus [6] = assay: as §1, with “EAE symptoms” for “serum chemokines level”, “cumulative scores” for “G-SCF level”, “and measured from day 12 to 38 post-immunization” for “by ELISA”; type: functional, organism-based; conditions: time 1-26 day
Mus musculus [7] = assay: Anti-inflammatory activity against MOG35-55-induced experimental autoimmune encephalomyelitis C57BL/6 mouse model assessed as fold change in HIF1A gene expression in brain at 0.15 mg/kg/day, ig for 14 days starting from 12th day of immunization by RT-qPCR analysis relative to control; type: functional; conditions: time 14 day
Mus musculus [8] = assay: Anti-inflammatory activity against MOG35-55-induced experimental autoimmune encephalomyelitis C57BL/6 mouse model assessed as upregulation of PLP protein expression in brain at 0.15 to 0.3 mg/kg/day, ig for 14 days starting from 12th day of immunization by western blot analysis; type: functional, organism-based; conditions: dose 0.15-0.3 mg/kg/day, time 14.0 day
Mus musculus [9] = assay: Anti-inflammatory activity against MOG35-55-induced experimental autoimmune encephalomyelitis C57BL/6 mouse model assessed as methylation of CpG sites of […] gene promoter in brain at […], ig for 14 days starting from 12th day of immunization by PCR analysis (reference value: 45 +/-7%); type: functional; conditions: time 14 day
Mus musculus [10] = assay: Anti-inflammatory activity against MOG35-55-induced experimental autoimmune encephalomyelitis C57BL/6 mouse model assessed as upregulation of MBP protein expression in brain at 0.15 to 0.3 mg/kg/day, ig for 14 days starting from 12th day of immunization by western blot analysis; type: functional, organism-based; conditions: dose 0.15-0.3 mg/kg/day, time 14.0 day
Mus musculus [11] = assay: Anti-inflammatory activity against MOG35-55-induced experimental autoimmune encephalomyelitis C57BL/6 mouse model assessed as fold change in H2EB1 (HLA-DRB1) gene expression in brain at 0.3 mg/kg/day, ig for 14 days starting from 12th day of immunization by RT-qPCR analysis relative to control; type: functional; conditions: time 14 day
Mus musculus [12] = assay: Anti-inflammatory activity against MOG35-55-induced experimental autoimmune encephalomyelitis C57BL/6 mouse model assessed as fold change in CXCL10 gene expression in brain at 300 mg/kg/day, ig for 14 days starting from 12th day of immunization by RT-qPCR analysis relative to control; type: functional; conditions: time 14 day
Mus musculus [13] = assay: Anti-inflammatory activity against MOG35-55-induced experimental autoimmune encephalomyelitis C57BL/6 mouse model assessed as methylation of CpG sites of […] gene promoter in brain at 600 mg/kg, ig for 14 days starting from 12th day of immunization by PCR analysis (reference value: 13.1 +/-8%); type: functional; conditions: time 14 day
Mus musculus [14] = assay: Anti-inflammatory activity against MOG35-55-induced experimental autoimmune encephalomyelitis C57BL/6 mouse model assessed as fold change in MBP gene expression in brain at 600 mg/kg/day, ig for 14 days starting from 12th day of immunization by RT-qPCR analysis relative to control; type: functional; conditions: time 14 day
Mus musculus [15] = assay: Anti-inflammatory activity against MOG35-55-induced experimental autoimmune encephalomyelitis C57BL/6 mouse model assessed as fold change in MAG gene expression in brain at 300 mg/kg/day, ig for 14 days starting from 12th day of immunization by RT-qPCR analysis relative to control; type: functional; conditions: time 14 day
Mus musculus [16] = assay: Anti-inflammatory activity against MOG35-55-induced experimental autoimmune encephalomyelitis C57BL/6 mouse model assessed as reduction in serum chemokines level by measuring reduction in CCL5 level at 600 mg/kg/day, ig for 14 days starting from 12th day of immunization by ELISA; type: functional, organism-based; conditions: time 14.0 day
Mus musculus [17] = assay: Anti-inflammatory activity against MOG35-55-induced experimental autoimmune encephalomyelitis C57BL/6 mouse model assessed as fold change in APP gene expression in brain at 300 mg/kg/day, ig for 14 days starting from 12th day of immunization by RT-qPCR analysis relative to control; type: functional; conditions: time 14 day
Mus musculus [18] = assay: Anti-inflammatory activity against MOG35-55-induced experimental autoimmune encephalomyelitis C57BL/6 mouse model assessed as fold change in STAT3 gene expression in brain at 300 mg/kg/day, ig for 14 days starting from 12th day of immunization by RT-qPCR analysis relative to control; type: functional; conditions: time 14 day
Mus musculus [19] = assay: Anti-inflammatory activity against MOG35-55-induced experimental autoimmune encephalomyelitis C57BL/6 mouse model assessed as fold change in BCL2 gene expression in brain at 600 mg/kg/day, ig for 14 days starting from 12th day of immunization by RT-qPCR analysis relative to control; type: functional; conditions: time 14 day
Mus musculus [20] = assay: Anti-inflammatory activity against MOG35-55-induced experimental autoimmune encephalomyelitis C57BL/6 mouse model assessed as methylation of CpG sites of IL11 gene promoter in brain at 600 mg/kg, ig for 14 days starting from 12th day of immunization by PCR analysis (reference value: 61.1 +/-4%); type: functional; conditions: time 14 day
Mus musculus [21] = assay: Anti-inflammatory activity against MOG35-55-induced experimental autoimmune encephalomyelitis C57BL/6 mouse model assessed as fold change in MAG gene expression in brain at 600 mg/kg/day, ig for 14 days starting from 12th day of immunization by RT-qPCR analysis relative to control; type: functional; conditions: time 14 day
Mus musculus [22] = assay: Anti-inflammatory activity against MOG35-55-induced experimental autoimmune encephalomyelitis C57BL/6 mouse model assessed as increase in brain IL-4 level at 600 mg/kg/day, ig for 14 days starting from 12th day of immunization by ELISA; type: functional, organism-based; conditions: time 14.0 day
Mus musculus [23] = assay: Anti-inflammatory activity against MOG35-55-induced experimental autoimmune encephalomyelitis C57BL/6 mouse model assessed as methylation of CpG sites of IL10RA gene promoter in brain at 600 mg/kg, ig for 14 days starting from 12th day of immunization by PCR analysis (reference value: 34.9 +/-4%); type: functional; conditions: time 14 day

Compound: CCCCCCCCc1ccc(CCC(N)(CO)CO)cc1 [FINGOLIMOD]
- fold change (FC) (Mus musculus [1]): -1.26
- fold change (FC) (Mus musculus [2]): 1.98
- fold change (FC) (Mus musculus [3]): 2.24
- Activity (Mus musculus [4]): Active
- Activity (Mus musculus [5]): 51%
- Activity (Mus musculus [6]): Active
- fold change (FC) (Mus musculus [7]): 2.49
- Activity (Mus musculus [8]): inactive
- Activity (Mus musculus [9]): 44.9%
- Activity (Mus musculus [10]): inactive
- fold change (FC) (Mus musculus [11]): 13.9

Compound: CCCCCCCCCCCCCCCCCCCCCCCCC(=O)O[C@H]1CC[C@]2(C)[C@H]3CC=C4[C@@H]5CC(C)(C)CC[C@]5(CO)CC[C@@]4(C)[C@]3(C)CC[C@H]2C1(C)C
- fold change (FC) (Mus musculus [12]): 3.24
- Activity (Mus musculus [13]): 15.2%
- fold change (FC) (Mus musculus [14]): 3.8
- fold change (FC) (Mus musculus [15]): 1.54
- Activity (Mus musculus [16]): Active
- fold change (FC) (Mus musculus [17]): -1.56
- fold change (FC) (Mus musculus [18]): 1.54
- fold change (FC) (Mus musculus [19]): 1.68
- Activity (Mus musculus [20]): 41.4%
- fold change (FC) (Mus musculus [21]): -1.18
- Activity (Mus musculus [22]): Active
- Activity (Mus musculus [23]): 32%
